The values that follow come from patent publication US20070219186A1, “Pyrazolo[1,5-A]pyrimidine derivatives and methods of use thereof” (priority 2006, published 2007).

Where two headings read alike, the source gives them in different places.

This assay deals with T1, human B-Raf (Homo sapiens, UniProt P15056).
T1 construct: Flag; GST; made in house; host or cells: Sf9 insect cells (B-Raf); E. coli (MEK1-GST)
Briefly: B-Raf Kinase to MEK1 ELISA. The format is biochemical. As to conditions: for inhibition at 10 µM: read-out: % Inhib./10 uM. The essentials:
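Flag/GST-tagged human B-Raf (Sf9, ~20 ng/point) phosphorylates non-active GST-MEK1 (50 nM final) with ATP and MgCl2 in MOPS pH 7.2 buffer, 60 min at RT. Product is captured on anti-GST plates; MEK1 pSer217/221 is read by phospho-antibody plus europium conjugate (DELFIA).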

Where [1] appears, read: median, cpd concentrations from 10 μM to 30 nM in half log dilutions, read-out: Median IC50.

T1 sequence (P15056 whole entry): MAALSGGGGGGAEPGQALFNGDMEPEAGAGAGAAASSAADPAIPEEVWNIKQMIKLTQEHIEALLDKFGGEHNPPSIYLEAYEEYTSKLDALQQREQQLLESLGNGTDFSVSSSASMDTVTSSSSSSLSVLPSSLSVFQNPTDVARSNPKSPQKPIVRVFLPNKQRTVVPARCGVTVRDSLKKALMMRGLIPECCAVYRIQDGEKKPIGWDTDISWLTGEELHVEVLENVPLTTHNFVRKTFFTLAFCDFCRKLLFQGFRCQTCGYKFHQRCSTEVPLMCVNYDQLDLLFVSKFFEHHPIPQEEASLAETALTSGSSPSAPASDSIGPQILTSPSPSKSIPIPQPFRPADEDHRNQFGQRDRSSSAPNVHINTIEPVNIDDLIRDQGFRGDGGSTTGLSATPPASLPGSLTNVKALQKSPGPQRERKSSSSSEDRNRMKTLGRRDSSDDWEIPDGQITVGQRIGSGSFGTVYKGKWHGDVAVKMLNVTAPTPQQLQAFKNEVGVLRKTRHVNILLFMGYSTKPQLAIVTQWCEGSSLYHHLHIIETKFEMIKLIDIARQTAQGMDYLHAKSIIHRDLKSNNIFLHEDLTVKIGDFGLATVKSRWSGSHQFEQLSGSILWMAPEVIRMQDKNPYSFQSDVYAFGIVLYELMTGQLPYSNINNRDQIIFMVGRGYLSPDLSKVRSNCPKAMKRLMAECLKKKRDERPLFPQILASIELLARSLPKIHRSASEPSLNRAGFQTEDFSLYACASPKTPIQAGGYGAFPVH

Consider `O=C(Nc1cccc(-c2ccnc3c(-c4ccncc4)cnn23)c1)c1ccc(Cl)c(C(F)(F)F)c1` [Example 191, 4-chloro-N-[3-(3-pyridin-4-ylpyrazolo[1,5-a]pyrimidin-7-yl)phenyl]-3-(trifluoromethyl)benzamide], for which the inhibition at 10 µM is 60%. Also, the IC50 – broadly, the concentration at which inhibition is half-maximal – under setting [1] stood at 1920 nM.

As to “4-[7-(3-{[3-(trifluoromethyl)benzoyl]amino}phenyl)pyrazolo[1,5-a]pyrimidin-2-yl]benzyl acetate [Example 142]”, under setting [1], the IC50 was > 10000 nM. The “% Inhib./10 uM” value (single point assay, 10 uM) is listed as 48%.

For `O=C(Cc1nnn[nH]1)Nc1ccc(-c2cnn3c(-c4cccc(NC(=O)c5cccc(C(F)(F)F)c5)c4)ccnc23)cc1` [Example 233, N-[3-(3-{4-[(1H-tetrazol-5-ylacetyl)amino]phenyl}pyrazolo[1,5-a]pyrimidin-7-yl)phenyl]-3-(trifluoromethyl)benzamide], the inhibition at 10 µM stood at 96%. Also, under setting [1], the IC50 came to 1000 nM.

For the compound `CCOC(=O)c1cnn2c(-c3cccc(NC(=O)Nc4ccc(Cl)cc4)c3)ccnc12` [Example 34, ethyl 7-[3-({[(4-chlorophenyl)amino]carbonyl}amino)phenyl]pyrazolo[1,5-a]pyrimidine-3-carboxylate], the inhibition at 10 µM stood at 37%. Also, the IC50 under setting [1] was > 10000 nM.

As for `CCOC(=O)c1cnn2c(-c3cccc(NC(=O)Nc4ccc(OC(F)(F)F)cc4)c3)ccnc12` [Example 23, ethyl 7-{3-[({[4-(trifluoromethoxy)phenyl]amino}carbonyl)amino]phenyl}pyrazolo[1,5-a]pyrimidine-3-carboxylate], the inhibition at 10 µM was determined as 20%. Further, under setting [1], the IC50 is > 10000 nM.

`COCCOCC(=O)Nc1ccc(-c2cnn3c(-c4cccc(NC(=O)c5cccc(C(F)(F)F)c5)c4)ccnc23)cc1` [Example 235, N-{3-[3-(4-{[(2-methoxyethoxy)acetyl]amino}phenyl)pyrazolo[1,5-a]pyrimidin-7-yl]phenyl}-3-(trifluoromethyl)benzamide]: the inhibition at 10 µM worked out at 84%. For the same compound, the IC50 under setting [1] was found to be 169 nM.

Consider `Cc1cc(-c2cccc(NC(=O)c3cccc(C(F)(F)F)c3)c2)n2nc(-c3ccncc3)cc2n1` [Example 302, N-[3-(5-methyl-2-pyridin-4-ylpyrazolo[1,5-a]pyrimidin-7-yl)phenyl]-3-(trifluoromethyl)benzamide], for which the inhibition at 10 µM was 72%. The IC50 under setting [1] amounted to 800 nM.

`Cc1cc2nccc(-c3cccc(NC(=O)c4cccc(C(F)(F)F)c4)c3)n2n1` [Example 112, N-[3-(2-methylpyrazolo[1,5-a]pyrimidin-7-yl)phenyl]-3-(trifluoromethyl)benzamide]: the inhibition at 10 µM was 26%. Besides, the IC50 under setting [1] was > 10000 nM.

For `Cc1ccc(C(=O)Nc2cccc(-c3ccnc4cc(-c5ccncc5)nn34)c2)cc1C(F)(F)F` [Example 134, 4-methyl-N-[3-(2-pyridin-4-ylpyrazolo[1,5-a]pyrimidin-7-yl)phenyl]-3-(trifluoromethyl)benzamide], the inhibition at 10 µM stood at 96%. Also, under setting [1], the IC50 was 40 nM.

For `Cc1ccc(C(=O)Nc2cccc(-c3ccnc4c(C#N)c(N5CCNCC5)nn34)c2)cc1C(F)(F)F` [Example 68, N-[3-(3-cyano-2-piperazin-1-ylpyrazolo[1,5-a]pyrimidin-7-yl)phenyl]-4-methyl-3-(trifluoromethyl)benzamide], the inhibition at 10 µM turned out to be 45%. Also, under setting [1], the IC50 was found to be 8400 nM.

With `CN(C)CCCc1cc2nccc(-c3cccc(NC(=O)c4cccc(C(F)(F)F)c4)c3)n2n1` [Example 110, N-(3-{2-[3-(dimethylamino)propyl]pyrazolo[1,5-a]pyrimidin-7-yl}phenyl)-3-(trifluoromethyl)benzamide], the inhibition at 10 µM was 24%. Also, the IC50 under setting [1] was > 10000 nM.

`O=C(Nc1cccc(-c2ccnc3c(-c4ccc(CN5CCCC5)cc4)cnn23)c1)c1cccc(C(F)(F)F)c1` [Example 315, N-(3-{3-[4-(pyrrolidin-1-ylmethyl)phenyl]pyrazolo[1,5-a]pyrimidin-7-yl}phenyl)-3-(trifluoromethyl)benzamide]: the IC50 is 20.5 nM and the inhibition at 10 µM was determined as 102%.

For `CCOC(=O)c1cnn2c(-c3cccc(NC(=O)Cc4cccc(Br)c4)c3)ccnc12` [Example 92, ethyl 7-(3-{[(3-bromophenyl)acetyl]amino}phenyl)pyrazolo[1,5-a]pyrimidine-3-carboxylate], the inhibition at 10 µM was found to be 97%. Also, under setting [1], the IC50 is > 10000 nM.

Take `CCOC(=O)c1cnn2c(-c3cccc(NC(=O)Nc4ccc(Cl)cc4C(F)(F)F)c3)ccnc12` [Example 43, ethyl 7-{3-[({[4-chloro-2-(trifluoromethyl)phenyl]amino}carbonyl)amino]phenyl}pyrazolo[1,5-a]pyrimidine-3-carboxylate]: the inhibition at 10 µM is 9%. Besides, the IC50 under setting [1] is > 10000 nM.

For `O=C(Nc1cccc(-c2ccnc3c(-c4ccnc(Cl)c4)cnn23)c1)c1cccc(C(F)(F)F)c1` [Example 301, N-{3-[3-(2-chloropyridin-4-yl)pyrazolo[1,5-a]pyrimidin-7-yl]phenyl}-3-(trifluoromethyl)benzamide], the IC50 worked out at 1730 nM and the inhibition at 10 µM was determined as 75%.

`CCOC(=O)c1cnn2c(-c3cccc(NC(=O)Cc4cccc(Cl)c4)c3)ccnc12` [Example 94, ethyl 7-(3-{[(3-chlorophenyl)acetyl]amino}phenyl)pyrazolo[1,5-a]pyrimidine-3-carboxylate]: the inhibition at 10 µM stood at 14%. Besides, the IC50 under setting [1] is > 10000 nM.

On to `Cc1cccc(C(=O)Nc2cccc(-c3ccnc4cc(-c5ccncc5)nn34)c2)c1` [Example 147, 3-methyl-N-[3-(2-pyridin-4-ylpyrazolo[1,5-a]pyrimidin-7-yl)phenyl]benzamide], for which the inhibition at 10 µM came to 66%. The IC50 under setting [1] came to 1400 nM.

As for `CCOC(=O)c1cnn2c(-c3cccc(NC(=O)c4cccn4C)c3)ccnc12` [Example 215, ethyl7-(3-{[(1-methyl-1H-pyrrol-2-yl)carbonyl]amino}phenyl)pyrazolo[1,5-a]pyrimidine-3-carboxylate], the inhibition at 10 µM is 0%. The IC50 under setting [1] was > 10000 nM.

As to `CCOC(=O)c1cnn2c(-c3cccc(NC(=O)c4nn(-c5ccccc5)nc4C)c3)ccnc12` [Example 220, ethyl7-(3-{[(5-methyl-2-phenyl-2H-1,2,3-triazol-4-yl)carbonyl]amino}phenyl)pyrazolo[1,5-a]pyrimidine-3-carboxylate], the inhibition at 10 µM stood at 30%. Moreover, the IC50 under setting [1] is > 10000 nM.

In the case of `Nc1ccc(-c2cnn3c(-c4cccc(NC(=O)c5cccc(C(F)(F)F)c5)c4)ccnc23)cn1` [Example 278, N-{3-[3-(6-aminopyridin-3-yl)pyrazolo[1,5-a]pyrimidin-7-yl]phenyl}-3-(trifluoromethyl)benzamide], inhibition was half-maximal at 111 nM (IC50) and the inhibition at 10 µM came to 96%.

Turning to `O=C(Nc1cccc(-c2ccnc3cc(N4CCOCC4)nn23)c1)Nc1cccc(C(F)(F)F)c1` [Example 199, N-[3-(2-morpholin-4-ylpyrazolo[1,5-a]pyrimidin-7-yl)phenyl]-N′-[3-(trifluoromethyl)phenyl]urea], the inhibition at 10 µM is 96%. Besides, the IC50 under setting [1] amounted to 120 nM.
